For assay [1], the target named is T1, BAG1 (Homo sapiens, UniProt Q99933).
T1 construct: purchased Enzo Life Sciences
T1 sequence (Q99933 1-274 isoform Q99933-3): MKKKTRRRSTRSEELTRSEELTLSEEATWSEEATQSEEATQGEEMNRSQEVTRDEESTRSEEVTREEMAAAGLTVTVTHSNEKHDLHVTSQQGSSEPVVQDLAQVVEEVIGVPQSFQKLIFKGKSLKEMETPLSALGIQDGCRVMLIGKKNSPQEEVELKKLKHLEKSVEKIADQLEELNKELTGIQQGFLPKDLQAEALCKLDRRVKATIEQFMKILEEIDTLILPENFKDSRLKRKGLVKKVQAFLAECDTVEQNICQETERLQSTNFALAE
Kind of assay: FP of probes with BAG1 in the absence of HSP72. In kind it is binding. As to conditions: 10 nM probe, 1 µM BAG1. As to the method:
To assess what effect the secondary HSP72/BAG1 complex had on the apparent affinity of the non-nucleotide bisaryl-ATTO-488 FP-probe 11, we carried out a similar BAG1 study. […] To confirm that the binding of BAG1 to HSP72 was not mutually exclusive, we screened the nucleotides ADP and ATP in a competition assay with bisaryl-ATTO-488 11 and HSP72 at a 50% bound fraction, with and without a saturating concentration of BAG1 (700 nM) (Fig. S7, ESI ^†).
Fig. S4. Competitive displacement curve for bisarryl-ATTO-448 and HSP72 with compound 2. IC50 determination was performed using non-linear least squares curve fitting (GraphPad Prism 6, log(inhibitor) vs. response—variable slope (four parameters)), all data points were tested in triplicate and are represented as the arithmetic mean ± SEM. pKD=-log KD (M). pKD values are quoted as the geometric mean±SEM of n independent repeats.
Fig. S5. Bisaryl-ATTO-488 and ATP-ATTO-488 binding to truncated HSP72 and HSC70. Representative binding isotherms for bisaryl-ATTO-488 (blue) and ATP-ATTO-488 (red) binding to TR-HSP72 (aa 3-382) (•) and TR-HSC70 (aa 4-381) (x). KD determination was performed using non-linear regression analysis (one site–specific binding model), all data points were tested in triplicate and are represented as the arithmetic mean ± SEM. pKD=-log KD (M). pKD values are quoted as the geometric mean±SEM of n independent repeats.
Fig. S6. […]

The target in assay [2] is T2, HSP72 (Homo sapiens, UniProt P0DMV8).
T2 construct: made in house
Kind of assay: Fluorescence polarisation probe KD determination with full-length HSP72. In kind it is binding. Here is the method:
To determine the binding affinity of bisaryl FP-probe 11 for HSP72, increasing concentrations of the protein were titrated against a fixed concentration (10 nM) of the FP-probe. […] We speculated that this decrease in apparent KD was due to the slow hydrolysis of the ATP-probe to ADP-ATTO-488 + Pi. Although HSP72 has low intrinsic ATPase activity,[8] the high enzyme concentration could catalyse hydrolysis over the time-frame of the assay, with the initial KD values reflective of the known modest affinity of ATP for HSP70, whilst the final KD value was consistent with the higher affinity ADP ligand.[14] […]
TRIS Tris(hydroxymethyl)aminomethane
General Information: Unless otherwise stated the aqueous assay buffer contained 50 mM TRIS base pH 7.4, 150 mM NaCl, 6 mM MgCl2, 1 mM DTT, 0.1% (wt/wt) CHAPS. The assay was conducted using 384 Plus F ProxiPlates (PerkinElmer) with a final assay volume of 10 μL. Plates were centrifuged at 1000 rpm for 1 minute prior to incubation and read using an 2103 Envision Multilable Plate Reader. Excitation and emission wavelengths used for green probes were 480 nm and 535 nm, respectively.
Fluorescence polarisation was measured in units of millipolarization (mP). All experiments were performed in triplicate, unless otherwise stated. Data were plotted and analysed using GraphPad Prism 6, graphical data represents the mean ± standard error of the mean for a single representative experiment. ATP-derived fluorescent probes (1.0 mM in aqueous) were purchased from Jena Bioscience. Human BAG-1M (10.9 μM in 20 mM TRIS base pH 7.4, 100 mM NaCl, 1 mM DTT, 1% (v/v) glycerol) was purchased from Enzo Life Sciences. […]
Fluorescence polarisation values for the tracer ± protein were plotted using GraphPad prism 6.
Fluorescent probe KD determination: To each well, 5 μL of probe molecule (20 nM in assay buffer) and increasing concentrations of HSP70 protein (5 μL, two-fold dilution series) were added. Fluorescence polarisation values for tracer control wells (10 nM probe in assay buffer only) were subtracted from each data point prior to data analysis. KD determination was performed using non-linear regression analysis (GraphPad Prism 6, one site–specific binding model). […]
BAG-1 titration: To each well, ATP-ATTO488 and HSP70 at two times their final concentration (5 µL in assay buffer) was added and the plate incubated in the dark for 16 hours. Increasing concentrations of BAG1 protein (5 μL, two-fold dilution series in 20 […]
(1 picture or pasted object on this page, not shown here)

Each structure is given as a SMILES string. Read-outs that look alike come from different tables or passages of the source.

T2 sequence (P0DMV8 whole entry): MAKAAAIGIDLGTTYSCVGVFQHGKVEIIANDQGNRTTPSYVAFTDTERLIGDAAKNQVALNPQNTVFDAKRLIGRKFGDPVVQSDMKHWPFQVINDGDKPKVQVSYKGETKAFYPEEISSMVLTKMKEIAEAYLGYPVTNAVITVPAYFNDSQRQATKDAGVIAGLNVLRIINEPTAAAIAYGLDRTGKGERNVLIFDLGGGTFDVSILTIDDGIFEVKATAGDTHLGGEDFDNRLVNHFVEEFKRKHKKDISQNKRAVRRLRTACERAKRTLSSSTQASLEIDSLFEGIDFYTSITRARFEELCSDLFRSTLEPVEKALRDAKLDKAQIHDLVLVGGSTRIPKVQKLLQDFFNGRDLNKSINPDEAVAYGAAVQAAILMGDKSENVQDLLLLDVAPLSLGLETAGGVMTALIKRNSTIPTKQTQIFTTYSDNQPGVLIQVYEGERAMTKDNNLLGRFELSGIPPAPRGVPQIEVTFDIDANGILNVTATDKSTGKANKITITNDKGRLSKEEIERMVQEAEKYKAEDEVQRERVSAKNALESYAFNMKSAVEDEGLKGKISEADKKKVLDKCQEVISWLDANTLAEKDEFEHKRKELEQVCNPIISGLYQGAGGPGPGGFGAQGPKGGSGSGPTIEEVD

As for `CN(CCCC(=O)NCCCCCCNc1ncnc2c1nc(NCc1ccc3ncccc3c1)n2[C@@H]1O[C@H](COCc2ccc(C(F)(F)F)cc2)[C@@H](O)[C@H]1O)C(=O)c1ccccc1-c1c2ccc(=N)c(S(=O)(=O)O)c-2oc2c(S(=O)(=O)O)c(N)ccc12` [compound 11], the “interaction with BAG1 in the absence of HSP72” value in assay [1] is on record as “No interaction”; in assay [1] (listed as bisaryl-ATTO-488), “does not interact”. Also, the “time-dependency of affinity for HSP72” value in assay [2] is recorded as “no apparent time-dependency”. In addition, the pKD came to 6.72 ± 0.04 in assay [2] (10 nM probe, 0.1% (w/v) CHAPS, n = 4) and 6.83 in assay [2] (0.01% (v/v) Triton X-100, n = 3). Besides, the Kd was determined as 194 nM in assay [2] (10 nM probe, 0.1% (w/v) CHAPS, read-out: KD); 150 nM in assay [2] (0.01% (v/v) Triton X-100, read-out: KD); 183 nM in assay [2] (without BAG1, Fig. S7 isotherm, read-out: KD - BAG1).

For the origin of these results see PMC5708526, “Targeting secondary protein complexes in drug discovery: studying the druggability and chemical biology of the HSP70/BAG1 complex” (Chemical Communications (Cambridge, England), 2017).
